Measured values as given in US11033538B2, “Dosing regimens for the treatment of lysosomal storage diseases using pharmacological chaperones” (Amicus Therapeutics, Inc., priority 2007, dated 2021).

Key:
[1] = system: GL-3; assay: Oral administration of Amigal to mice that produce defective human α-GAL, GL-3; type: in vivo
Description: Kidney GL-3 levels were assessed by an independent expert using electron microscopy.

[2] = system: GL-3; assay: Example 6, kidney biopsy GL-3 histology; type: in vivo, human
Description: Four male patients received a single 150 mg Q.O.D for 12 weeks (Group B); while five male patients received 150 mg Q.O.D. for 24 weeks (Group C). Finally nine female patients were randomized to receive one of three dosages: 50, 150 or 250 mg Q.O.D for 12 weeks (Group D) (FIG. 8).
Kidney biopsies were performed at baseline, 12 weeks and 24 weeks post-treatment and evaluated for GL-3 deposits in various renal cells. GL-3 presence in the tissue was examined histologically as well as through the use of mass spectroscopy. Light microscopic analysis of kidney biopsies was performed, wherein the accumulation of GL-3 in the tissue was classified in a manner similar to the classification analysis performed in Kidney International, Vol. 62 (2002), pp. 1933-1946 which is hereby incorporated by reference. Cells were classified as containing no GL-3 accumulation (“0”); mild GL-3 accumulation (“1”); moderate GL-3 accumulation (“2”); or severe GL-3 accumulation (“3”).
Kidney GL-3 levels were assessed using histological and mass spectroscopic analysis. Kidney biopsies were examined in four of the “good” responders, two of the “moderate” responders, and two of the “non” responders. Accumulation of GL-3 was examined in three different kidney cell types: interstitial capillaries, distal tubules, and podocytes.

[3] = system: Fabry patients; assay: Example 6, renal function (eGFR); type: in vivo, human; conditions: good responders
Description: Renal function was evaluated using glomerular filtration rate (GFR).
Renal function was measured using glomerular filtration rate (GFR) (MDRD equation was used to estimate GFR using serum creatinine adjusted for age, gender and race). Approximately half of all Fabry patients have an abnormally low GFR (<90 ml/min/1.73 m^2). […] As shown in FIG. 17A-B, the good responders maintained a mean eGFR within the normal eGFR range of 90-120 ml/min/1.73 m^2 during the entire treatment procedure (FIG. 17A), while the predicted mean eGFR level of untreated individual is projected to continue declining below 90 ml/min/1.73 m^2 (FIG. 17B).

[4] = system: Fabry patients; assay: Example 6, cardiac analysis; type: in vivo, human
Description: In addition to the biopsies described above, MRIs, electrocardiograms and echocardiograms with strain rate evaluations was performed at baseline and periodically throughout the study to assess cardiac morphology (e.g., left ventricular hyertrophy) and cardiac function (e.g., ejection fraction and conduction/rhythm abnormalities).

[5] = target: T1, hR301Q GLA (Homo sapiens, UniProt P06280, R301Q); assay: Example 12, GLA activity and protein in tissues of hR301Q GLA Tg/KO mice; type: in vivo; conditions: 4 weeks
T1 construct: from tissue; host or cells: skin, heart, kidney lysates of hR301Q GLA Tg/KO mice
T1 sequence (P06280 32-429 R301Q): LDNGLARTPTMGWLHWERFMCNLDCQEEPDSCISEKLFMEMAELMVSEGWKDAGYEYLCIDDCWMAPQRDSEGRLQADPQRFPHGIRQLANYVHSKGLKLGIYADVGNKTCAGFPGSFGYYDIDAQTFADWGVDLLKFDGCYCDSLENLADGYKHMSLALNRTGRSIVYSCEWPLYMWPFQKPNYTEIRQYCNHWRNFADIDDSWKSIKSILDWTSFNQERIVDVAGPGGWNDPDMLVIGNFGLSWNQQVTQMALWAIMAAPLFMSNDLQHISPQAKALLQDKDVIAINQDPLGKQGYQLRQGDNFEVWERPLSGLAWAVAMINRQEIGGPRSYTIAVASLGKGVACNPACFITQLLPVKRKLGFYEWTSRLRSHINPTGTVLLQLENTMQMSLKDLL
Description: Tissue lysates from skin, heart, and kidney were prepared and tested for GLA activity (using 4-MUG as substrate, expressed in nmol/mg protein/hr), GLA protein (using immunoblotting of […] tissue lysate with anti-human GLA antibody) and GL-3 levels (using LC-MS/MS, expressed in mg/g of tissue weight). […] Each bar represents the mean±SEM of n=7-8 mice/group. Each lane in the Western blots represents one mouse from each group.

[6] = system: GL-3; assay: Example 15, kidney interstitial capillary GL-3 inclusions; type: in vivo, human
From the text: The tertiary objectives were cardiac function, patient-reported outcomes, exploratory kidney analyses, and white blood cell α-galactosidase activity. Study completers were eligible to enroll in the open-label study—AT1001-041/NCT01458119—for up to 5 years.
Each patient underwent a baseline kidney biopsy, as well as repeat kidney biopsies at 6 and 12 months. The number of GL-3 inclusions per kidney interstitial capillary per patient at baseline, and at 6 and 12 months was quantitatively assessed in 300 capillaries by 3 independent pathologists blinded to treatment and visit. All values for each individual biopsy at a given time were averaged prior to statistical analysis.
Two other Stage 1 endpoints were assessed (modified-ITT population: randomized patients with paired baseline and month 6 biopsies; n=60): percent change in GL-3 inclusions per interstitial capillary, and percent of interstitial capillaries with zero GL-3 inclusions.

[7] = system: patients with Fabry disease; assay: Example 15, renal function assessment; type: in vivo, human
Description: Annualized rates of change (mL/min/1.73 m^2/year) were calculated using Chronic Kidney Disease Epidemiology Collaboration-eGFRCKD-EPI) and measured iohexol clearance-mGFRiohexol).

[8] = system: GL-3; assay: Example 15, podocyte GL-3 by electron microscopy stereology; type: in vivo, human; conditions: after 6 months of DGJ
From the text: This decrease correlated with % reduction in podocyte GL-3 volume (r=0.79, p=0.02). […] The sensitive quantitative method used can assess treatment efficacy for this important cell type over a relatively short period of time. This method is also more sensitive than the methods described above in the kidney analysis of Example 5 (as shown in FIG. 14), as well as the methods earlier in this example relating to qualitative assessment of podocyte GL-3.

[9] = up to 24 months of DGJ, mITT-suitable

## OC[C@H]1NC[C@H](O)[C@@H](O)[C@H]1O [DGJ, (2R,3S,4R,5S)-2-(hydroxymethyl) piperdine-3,4,5-triol]
[1]
  GL-3 after oral administration: GL-3 reductions observed
[2]; male good responders
  distal tubule GL-3 (histology): three of the good responders experienced a decrease in GL-3
  interstitial capillary GL-3 (histology): one patient displayed a decrease in interstitial capillary GL-3
  overall GL-3 levels in kidney biopsies: two of the good responders showed a decrease in GL-3
  podocyte GL-3 (histology): all four good responders experienced no change
[2]; male moderate responders
  overall GL-3 levels in kidney biopsies: two patients showed a decrease in GL-3 levels
[2]; male non-responders
  overall GL-3 levels in kidney biopsies: One non-responders showed a decrease in GL-3 levels
[3]
  mean eGFR maintained during the entire treatment: 90-120 ml/min/1.73 m^2
[4]; 2 good responders with abnormally high left ventricle mass, 48 weeks
  left ventricle mass: no change in left ventricle mass
[4]; one good responder with abnormally high left ventricle mass, 12 weeks
  decrease in left ventricle mass: 8%
[4]; two of three good responders with abnormal ejection fraction before treatment
  ejection fraction following treatment: > 55%
[5]; 3, 10, 30, 100 or 300 mg/kg/day, p<0.05 vs. untreated
  GLA activity in skin, heart, kidney: significant and dose-dependent increase in GLA activity
[5]; 3-300 mg/kg/day
  GLA protein (immunoblotting): significant and dose-dependent increase
[6]; 6 months of DGJ, mITT-suitable, p=0.008 vs placebo
  reduction in interstitial capillary GL-3 (±SEM): −0.250±0.103
[6]; 6 months, ITT, 150 mg DGJ HCl every other day, 13 of 32, p=0.30 vs placebo
  patients achieving a response (>50% reduction in GL-3 inclusions per interstitial capillary): 41%
[6]; 6 months, p=0.097 vs placebo
  median change in interstitial capillary GL-3 from baseline: −40.8%
[6]; 6 months, vs placebo, p=0.042
  mean difference for the change in % of interstitial capillaries with zero GL-3 inclusions, in favor of DGJ: 7.3%
[6]; additional 6 months of treatment
  interstitial capillary GL-3 reduction after additional treatment: remained stable
[6]; at 12 months, patients switching from placebo to DGJ at 6 months, p=0.014
  reduction in interstitial capillary GL-3 (±SEM): −0.330±0.152
[6]; patients with mutant α-galactosidase not suitable for DGJ therapy
  treatment effect in interstitial capillary GL-3: did not show any treatment effect in interstitial capillary GL-3
[7]; baseline to month 6, mITT-suitable
  eGFRCKD-EPI or mGFRIohexol changes, DGJ vs placebo: no statistically significant differences
[7]; [9]
  annualized change in eGFRCKD-EPI (±SEM): −0.30±6.6 mL/min/1.73 m^2
  annualized change in mGFRiohexol (±SEM): −1.51±1.33 mL/min/1.73 m^2
[8]; baseline 2568±1408, N=8 males, p=0.0182
  mean±SD V(Inc/PC), GL-3 inclusion volume per podocyte: 1282±792 μm^3
[8]; baseline 6680±2835, p=0.004
  mean podocyte volume: 3525±2084 μm^3
